Source: ChEMBL document CHEMBL1201862, “PubChem BioAssay data set” (2004)
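These data come from cells grown in 96-well plates and exposed to compound for 48 hours at five concentrations. GI50 is the concentration that inhibits growth by half.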 Calls of active or inactive are those of the source. Rule as the data show it: active = GI50 up to about 1.1 µM and inactive = higher.

Key:
Assay in all cases: NCI tumour cell line growth inhibition, 48 h
LXFL 529 = test system: LXFL 529
DMS-114 = test system: DMS-114
RXF 631 = test system: RXF 631
DLD-1 = test system: DLD-1
DMS-273 = test system: DMS-273
KM-20L2 = test system: KM-20L2
M19-MEL = test system: M19-MEL
HOP-18 = test system: HOP-18
SNB-78 = test system: SNB-78

Measured: GI50

Cc1cccc(NC(=O)Cc2nc3ccccc3s2)c1C
inactive: LXFL 529 > 100 µM | DMS-114 > 100 µM | RXF 631 > 100 µM | DLD-1 > 100 µM | DMS-273 > 100 µM | KM-20L2 > 100 µM | M19-MEL > 100 µM

CCCCCCCCCCCCCCCC(=O)OCC1OC(OC)C(NC(=O)N(CCCl)N=O)C(O)C1O (configuration not stated)
inactive: LXFL 529 16.3 µM | DMS-114 13.2 µM | HOP-18 32.4 µM | DLD-1 14.7 µM | DMS-273 10.2 µM | SNB-78 24.5 µM | KM-20L2 20.3 µM | M19-MEL 22.5 µM

N=S(c1ccccc1[N+](=O)[O-])c1ccccc1[N+](=O)[O-]
inactive: LXFL 529 2.96 µM | HOP-18 6.11 µM | RXF 631 1.8 µM | DMS-273 2.16 µM | SNB-78 2.68 µM | M19-MEL 3.3 µM

Cc1cn(Cc2ccccc2CCO)c(=S)[nH]c1=O
inactive: LXFL 529 > 100 µM | DMS-114 > 100 µM | HOP-18 > 100 µM | RXF 631 > 100 µM | DMS-273 > 100 µM | KM-20L2 > 100 µM | M19-MEL > 100 µM

Cc1cc(Cl)ccc1NC(=O)CCCC(=O)C1CCCC1=O (configuration not stated)
inactive: LXFL 529 > 100 µM | DMS-114 > 100 µM | HOP-18 > 100 µM | DLD-1 > 100 µM | DMS-273 > 100 µM | SNB-78 > 100 µM | KM-20L2 > 100 µM | M19-MEL > 100 µM

CCOC(=O)N1CCN(C=S)CC1
inactive: LXFL 529 > 100 µM | DMS-114 > 100 µM | HOP-18 > 100 µM | RXF 631 > 100 µM | DLD-1 > 100 µM | DMS-273 > 100 µM | SNB-78 > 100 µM | KM-20L2 > 100 µM | M19-MEL > 100 µM

COc1ccc2nc3cc(Cl)ccc3c(Sc3ccc([N+](=O)[O-])cc3)c2c1
inactive: LXFL 529 > 10 µM | DMS-114 > 10 µM | HOP-18 > 10 µM | RXF 631 > 10 µM | DLD-1 > 10 µM | DMS-273 > 10 µM | SNB-78 > 10 µM | KM-20L2 > 10 µM | M19-MEL > 10 µM

C/C(=C1/N=C(c2cc([N+](=O)[O-])ccc2Cl)N(c2cccc(C)c2)C1=O)c1cc2ccccc2oc1=O
inactive: LXFL 529 84.9 µM | DMS-114 27.1 µM | HOP-18 74.6 µM | RXF 631 > 100 µM | DLD-1 31.7 µM | DMS-273 80.7 µM | SNB-78 > 100 µM | KM-20L2 > 100 µM | M19-MEL 66.2 µM

O=C(/C=C/c1ccccc1Cl)c1ccc(Cl)cc1Cl
inactive: LXFL 529 16.2 µM | DMS-114 11.8 µM | HOP-18 17 µM | RXF 631 19 µM | DLD-1 17.3 µM | DMS-273 15.7 µM | SNB-78 19.1 µM | KM-20L2 15.1 µM | M19-MEL 18 µM

COc1ccc(C2[C@H]3C(=O)N(c4ccc(Cc5ccc(N6C(=O)[C@@H]7ON(c8ccccc8)C(c8ccc(OC)cc8)[C@@H]7C6=O)cc5)cc4)C(=O)[C@H]3ON2c2ccccc2)cc1 (some centres not stated)
inactive: LXFL 529 > 100 µM | HOP-18 > 100 µM | DLD-1 > 100 µM | DMS-273 > 100 µM | SNB-78 > 100 µM | KM-20L2 > 100 µM | M19-MEL > 100 µM

CCCCCCCCCCCC1CC(=O)NCCCN(C)CCCCN(C)CCCN1C (configuration not stated) [BUDMUNCHIAMINE A]
inactive: LXFL 529 1.72 µM | DMS-114 1.78 µM | HOP-18 1.77 µM | DLD-1 1.6 µM | DMS-273 1.24 µM | SNB-78 1.79 µM | KM-20L2 1.65 µM | M19-MEL 1.76 µM

O=C1c2c(n(Cc3ccccc3)c(=O)n2Cc2ccccc2)C(=O)N1Cc1ccccc1
inactive: LXFL 529 35 µM | DMS-114 34.6 µM | HOP-18 > 100 µM | RXF 631 62.7 µM | DLD-1 63 µM | DMS-273 31.4 µM | SNB-78 > 100 µM | KM-20L2 52.7 µM | M19-MEL > 100 µM

Cc1ccc(/C=N/NS(=O)(=O)c2ccccc2)c(C)c1
inactive: LXFL 529 > 100 µM | DMS-114 > 100 µM | HOP-18 > 100 µM | RXF 631 > 100 µM | DLD-1 > 100 µM | DMS-273 > 100 µM | SNB-78 > 100 µM | KM-20L2 > 100 µM | M19-MEL > 100 µM

Clc1ncnc2c1ncn2CCCCCCCCCCCCn1cnc2c(Cl)ncnc21
inactive: LXFL 529 4.44 µM | DMS-114 1.67 µM | HOP-18 17.1 µM | DLD-1 7.94 µM | DMS-273 2.71 µM | SNB-78 3.56 µM | KM-20L2 16.1 µM | M19-MEL 2.27 µM

c1ccc([P+](CCC[P+](c2ccccc2)(c2ccccc2)c2ccccc2)(c2ccccc2)c2ccccc2)cc1
inactive: LXFL 529 11.3 µM | DMS-114 16.5 µM | HOP-18 54.7 µM | RXF 631 > 100 µM | DLD-1 56.6 µM | DMS-273 9.91 µM | SNB-78 52.8 µM | KM-20L2 33.5 µM | M19-MEL 19.9 µM

CC(C)(c1ccccc1)c1ccc(Oc2ccc(C#N)c(C#N)c2)cc1
inactive: LXFL 529 24.4 µM | DMS-114 4.98 µM | HOP-18 > 10 µM | RXF 631 > 10 µM | DLD-1 > 10 µM | SNB-78 > 10 µM | KM-20L2 > 10 µM | M19-MEL 79.1 µM

CCOC(=O)/C(=C\c1ccc[nH]1)C(=O)c1ccccc1
inactive: LXFL 529 > 100 µM | DMS-114 34.3 µM | HOP-18 78.9 µM | RXF 631 > 100 µM | DLD-1 > 100 µM | DMS-273 26.2 µM | SNB-78 > 100 µM | KM-20L2 > 100 µM | M19-MEL > 100 µM

c1ccc(CNc2ccc3[nH]c4cnccc4c3c2)cc1
inactive: LXFL 529 16.6 µM | DMS-114 14.8 µM | RXF 631 20.6 µM | DLD-1 16.6 µM | DMS-273 19.8 µM | SNB-78 20.9 µM | KM-20L2 16.2 µM | M19-MEL 18.7 µM

CCO/C(CCn1[nH]c(=O)c(Cl)c(Cl)c1=O)=N\NC(=O)C(=O)NN
inactive: LXFL 529 > 100 µM | DMS-114 > 100 µM | HOP-18 > 100 µM | RXF 631 > 100 µM | DLD-1 > 100 µM | DMS-273 > 100 µM | KM-20L2 > 100 µM | M19-MEL > 100 µM

Cn1c(=O)oc2cc(C3CCC(=O)N3Cc3ccc(Cl)cc3)ccc21 (configuration not stated)
inactive: LXFL 529 > 100 µM | DMS-114 > 100 µM | HOP-18 > 100 µM | DLD-1 92 µM | DMS-273 > 100 µM | SNB-78 > 100 µM | KM-20L2 > 100 µM | M19-MEL > 100 µM

COC1=C2CC(C)CC(OC)C(O)C(C)/C=C(\C)C(OC(N)=O)C(OC)/C=C\C=C(/C)C(=O)NC(=C(/C=N/N3CCCCC3)C1=O)C2=O (configuration not stated)
inactive: LXFL 529 10 µM | HOP-18 11.9 µM | RXF 631 8.28 µM | DLD-1 8.47 µM | DMS-273 13.6 µM | SNB-78 12.4 µM | KM-20L2 5 µM | M19-MEL 7 µM

O=C(Cc1nc2ccccc2c(=O)n1-c1c(Cl)cccc1Cl)c1ccncc1
inactive: LXFL 529 27.7 µM | DMS-114 25.2 µM | HOP-18 33.8 µM | RXF 631 23.9 µM | DLD-1 26.7 µM | DMS-273 19.4 µM | SNB-78 34.1 µM | KM-20L2 27.5 µM | M19-MEL 20.3 µM

CCOC(=O)NC(=O)c1cn(CCN2CCN(c3ncnc4[nH]cnc34)CC2)c(=O)[nH]c1=O
inactive: LXFL 529 > 100 µM | DMS-114 > 100 µM | HOP-18 > 100 µM | RXF 631 > 100 µM | DLD-1 > 100 µM | KM-20L2 > 100 µM | M19-MEL > 100 µM
